Source: patent US20070254863A1 (priority 2006, published 2007)
Read-outs that look alike come from different tables or passages of the source.

Assays:
rat SUR2A = rat SUR2A (Rattus norvegicus, UniProt Q63563); test: In vitro binding affinity to rodent KATP channels: SUR2A ([3H]P1075 / [3H]glibenclamide displacement, COS cell membranes)
Method: Therefore, two strategies can be used to detect binding to the sulfonylurea site on SUR2A.
Membranes from COS-cells transiently expressing rat SUR2A were incubated in the presence of the radioligands with increasing concentrations of test compounds as described above. […] For each test compound four displacement curves were measured (displacement of [^3H]P1075 from the rat isoform of the wild type receptor and displacement of [^3H]glibenclamide from the rat isoform of SUR2AY1205S). Per curve 9-15 distinct concentrations were tested covering the relevant range. All measurements were repeated at least 5 times in independent experiments.
(§1) [^3H]glibenclamide (specific activity 51 Ci mmol^−1) was obtained from NEN (Dreieich, Germany). Where needed, stock solutions were prepared in dimethylsulfoxide with a final solvent concentration in the media below 1%.
(§2) SUR- or Kir6.x isoforms were used either subcloned in the pcDNA (hamster SUR1, mouse Kir6.2) or pCMV vector (rat SUR2A, SUR2B).
(§3) For transfection, the cells were incubated 4 hours in a Tris-buffered salt solution containing DNA (5-10 μg/ml) plus DEAE-dextran (1 mg/ml), 2 min in HEPES-buffered salt solution plus dimethylsulfoxide (10%) and 4 hours in DMEM-HG plus chloroquine (100 μM). Cells were then returned to DMEM-HG plus 10% FCS. […] For binding experiments, resuspended membranes (final protein concentration 5-50 μg/ml) were incubated in “Tris-buffer” (50 mM, pH 7.4) containing either [^3H]glibenclamide (final concentration 0.3 nM or 3 nM and nonspecific binding defined by 100 nM or 1 μM glibenclamide for SUR1 or SUR2Y1205S-isoforms, respectively) or [^3H]P1075 (final concentration 3 nM, nonspecific binding defined by 100 μM pinacidil) and increasing concentrations of the test compounds. The free Mg^2+ concentration were kept close to 0.7 mM. […] Incubations were carried out for 1 h at room temperature and were terminated by rapid filtration through Whatman GF/B filters.
(§4) The inhibition constant (Ki value) of the test substances was calculated from the respective IC50 value, and was stated as the negative logarithmic value thereof (pKi).

hamster SUR1 = target: T1, hamster SUR1 (Cricetus cricetus, UniProt Q09427); test: In vitro binding affinity to rodent KATP channels: SUR1 ([3H]glibenclamide displacement, COS cell membranes)
T1 construct: expressed in transfected cells; host or cells: COS-1 cells, transient (pcDNA vector)
Method: 1. In Vitro Binding Affinity of the Test Compounds to Rodent KATP Channels
Competitive binding experiments were performed to characterize the affinity of the test compounds for the binding sites for sulfonylureas and KATP channel openers (KCOS) on hamster SUR1. To assess the affinity for the sulfonylurea site, membranes from COS-cells transiently expressing hamster SUR1 were incubated in the presence of [^3H]glibenclamide with increasing concentrations of test compounds. […] For each test compound four displacement curves were measured (+/−MgATP from the human and hamster isoform). Per curve 9-15 distinct concentrations were tested covering the relevant range. All measurements were repeated at least 5 times in independent experiments.
as §1, §2, §3, §4

[1] = target: human cannabinoid CB2 receptor (Homo sapiens, UniProt P34972); test: biochemical; type: binding
Method: 3. In Vitro Binding Affinity of the Test Compounds to CB2 Receptors
After incubation of a freshly prepared cell membrane preparation with the [^3H]-ligand, with or without the addition of the compounds described herein, separation of bound and free ligand is performed by filtration over glass-fiber filters. Radioactivity on the filter is measured by liquid scintillation counting.

[2] = hamster SUR1 in COS cell membranes, read-out: Affinity to SUR 1 (converted)
[3] = cloned human CB2 receptor expressed in CHO cells, read-out: Affinity to CB2 (converted)
[4] = rat SUR2A in COS cell membranes

rat SUR2A, sequence (Q63563 whole entry): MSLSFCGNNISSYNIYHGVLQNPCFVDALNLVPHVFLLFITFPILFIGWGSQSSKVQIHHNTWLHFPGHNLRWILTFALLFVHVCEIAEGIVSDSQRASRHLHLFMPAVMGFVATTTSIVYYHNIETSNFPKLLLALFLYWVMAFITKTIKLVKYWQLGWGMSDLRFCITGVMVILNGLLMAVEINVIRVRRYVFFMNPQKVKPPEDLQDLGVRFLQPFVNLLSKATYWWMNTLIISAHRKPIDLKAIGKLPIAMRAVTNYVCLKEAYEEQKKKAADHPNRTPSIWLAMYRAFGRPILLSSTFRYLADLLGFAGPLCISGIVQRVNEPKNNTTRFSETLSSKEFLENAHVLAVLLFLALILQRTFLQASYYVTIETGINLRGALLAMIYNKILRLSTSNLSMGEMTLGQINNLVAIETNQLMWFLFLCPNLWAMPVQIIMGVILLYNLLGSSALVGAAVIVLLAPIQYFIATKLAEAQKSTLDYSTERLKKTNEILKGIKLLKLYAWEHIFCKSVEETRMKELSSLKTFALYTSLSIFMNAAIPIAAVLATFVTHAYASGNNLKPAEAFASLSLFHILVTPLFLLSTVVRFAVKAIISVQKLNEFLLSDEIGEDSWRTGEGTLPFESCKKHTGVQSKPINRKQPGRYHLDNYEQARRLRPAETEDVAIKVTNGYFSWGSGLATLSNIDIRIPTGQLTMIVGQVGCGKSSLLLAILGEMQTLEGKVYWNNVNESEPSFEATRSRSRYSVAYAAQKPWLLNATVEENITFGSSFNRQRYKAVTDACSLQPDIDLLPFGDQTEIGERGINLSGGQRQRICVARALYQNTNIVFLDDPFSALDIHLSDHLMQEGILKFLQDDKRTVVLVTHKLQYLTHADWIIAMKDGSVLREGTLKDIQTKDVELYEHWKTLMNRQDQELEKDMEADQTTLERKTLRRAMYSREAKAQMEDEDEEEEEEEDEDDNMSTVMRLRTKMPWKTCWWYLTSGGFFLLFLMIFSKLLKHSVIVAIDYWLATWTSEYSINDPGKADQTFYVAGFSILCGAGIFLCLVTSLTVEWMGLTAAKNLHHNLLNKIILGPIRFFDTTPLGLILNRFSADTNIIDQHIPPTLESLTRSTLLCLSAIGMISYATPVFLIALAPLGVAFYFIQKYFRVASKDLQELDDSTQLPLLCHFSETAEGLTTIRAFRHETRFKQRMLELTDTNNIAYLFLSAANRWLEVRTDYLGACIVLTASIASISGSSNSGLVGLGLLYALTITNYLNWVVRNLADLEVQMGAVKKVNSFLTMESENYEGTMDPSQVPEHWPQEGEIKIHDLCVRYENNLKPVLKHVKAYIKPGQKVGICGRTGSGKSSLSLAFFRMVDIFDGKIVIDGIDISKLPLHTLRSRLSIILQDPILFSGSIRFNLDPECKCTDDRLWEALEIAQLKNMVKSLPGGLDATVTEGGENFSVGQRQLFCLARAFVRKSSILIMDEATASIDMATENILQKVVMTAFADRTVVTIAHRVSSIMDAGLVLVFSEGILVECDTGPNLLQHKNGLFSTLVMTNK
T1 sequence (Q09427 whole entry): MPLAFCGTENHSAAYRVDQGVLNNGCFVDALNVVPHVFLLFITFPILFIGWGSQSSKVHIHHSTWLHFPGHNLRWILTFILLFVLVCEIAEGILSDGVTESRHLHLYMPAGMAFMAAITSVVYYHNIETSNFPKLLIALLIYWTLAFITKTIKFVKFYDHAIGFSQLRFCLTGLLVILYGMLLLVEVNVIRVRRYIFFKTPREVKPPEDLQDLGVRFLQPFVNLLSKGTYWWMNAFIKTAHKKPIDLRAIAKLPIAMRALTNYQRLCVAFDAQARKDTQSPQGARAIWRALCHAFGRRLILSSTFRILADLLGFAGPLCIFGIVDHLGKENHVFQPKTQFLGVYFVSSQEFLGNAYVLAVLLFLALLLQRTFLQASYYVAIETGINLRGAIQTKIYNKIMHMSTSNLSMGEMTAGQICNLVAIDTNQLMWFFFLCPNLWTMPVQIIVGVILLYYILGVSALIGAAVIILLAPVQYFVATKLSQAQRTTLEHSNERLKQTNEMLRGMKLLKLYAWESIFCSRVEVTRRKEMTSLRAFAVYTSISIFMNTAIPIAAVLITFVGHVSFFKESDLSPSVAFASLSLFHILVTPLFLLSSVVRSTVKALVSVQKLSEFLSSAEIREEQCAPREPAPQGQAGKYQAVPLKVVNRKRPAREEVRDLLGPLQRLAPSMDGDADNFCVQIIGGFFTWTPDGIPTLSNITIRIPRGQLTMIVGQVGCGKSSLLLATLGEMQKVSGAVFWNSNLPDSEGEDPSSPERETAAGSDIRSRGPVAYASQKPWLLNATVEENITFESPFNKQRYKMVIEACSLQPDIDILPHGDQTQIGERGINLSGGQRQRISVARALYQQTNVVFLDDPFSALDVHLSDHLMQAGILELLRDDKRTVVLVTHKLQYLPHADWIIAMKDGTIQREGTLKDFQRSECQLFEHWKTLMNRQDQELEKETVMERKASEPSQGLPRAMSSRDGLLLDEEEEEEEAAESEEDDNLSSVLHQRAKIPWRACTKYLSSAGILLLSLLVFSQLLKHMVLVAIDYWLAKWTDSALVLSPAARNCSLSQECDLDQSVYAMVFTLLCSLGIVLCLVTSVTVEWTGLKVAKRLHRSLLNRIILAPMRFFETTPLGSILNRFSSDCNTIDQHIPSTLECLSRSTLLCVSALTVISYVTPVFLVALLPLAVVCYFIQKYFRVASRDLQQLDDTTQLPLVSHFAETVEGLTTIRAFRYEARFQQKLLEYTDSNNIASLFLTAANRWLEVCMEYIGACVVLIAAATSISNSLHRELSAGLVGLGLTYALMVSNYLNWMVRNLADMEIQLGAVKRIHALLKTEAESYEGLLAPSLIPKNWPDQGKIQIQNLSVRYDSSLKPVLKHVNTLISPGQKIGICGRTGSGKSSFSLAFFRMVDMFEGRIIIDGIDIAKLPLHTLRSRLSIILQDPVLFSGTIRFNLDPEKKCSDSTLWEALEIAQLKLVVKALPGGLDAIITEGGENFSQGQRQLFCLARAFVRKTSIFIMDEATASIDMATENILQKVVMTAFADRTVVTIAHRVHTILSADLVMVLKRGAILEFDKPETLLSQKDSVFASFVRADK
human cannabinoid CB2 receptor, sequence (P34972 whole entry): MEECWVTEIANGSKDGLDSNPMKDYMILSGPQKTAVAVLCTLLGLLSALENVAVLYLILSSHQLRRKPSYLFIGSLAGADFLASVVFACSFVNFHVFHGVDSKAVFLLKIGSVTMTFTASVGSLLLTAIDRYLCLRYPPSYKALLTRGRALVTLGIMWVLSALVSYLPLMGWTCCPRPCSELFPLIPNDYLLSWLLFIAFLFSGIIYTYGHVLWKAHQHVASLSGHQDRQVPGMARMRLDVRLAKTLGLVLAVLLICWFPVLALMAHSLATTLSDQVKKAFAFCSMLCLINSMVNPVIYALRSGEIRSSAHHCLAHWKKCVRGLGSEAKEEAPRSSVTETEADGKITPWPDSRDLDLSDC

| Structure (SMILES) | pKi (rat SUR2A) | Ki (hamster SUR1; [2]) [µM] | Ki [1, 3] [µM] | other results |
| --- | --- | --- | --- | --- |
| N/C(=N\S(=O)(=O)c1ccc(Cl)cc1)N1C[C@@H](c2ccccc2)C(c2ccc(Cl)cc2)=N1 (stereo in doubt) [N-{Amino-[3-(4-chloro-phenyl)-4-phenyl-4,5-dihydro-pyrazol-1-yl]-methylene}-4-chloro-benzenesulfonamide] | 5.4 | 0.794 |  | Ki [1]: 0.158 µM |
| CCc1c(C(=O)NC2CCCCC2)nc(-c2ccc(Cl)cc2Cl)n1-c1ccc(Br)cc1 [1-(4-Bromo-phenyl)-2-(2,4-dichloro-phenyl)-5-ethyl-1H-imidazole-4-carboxylic acid cyclohexylamide] | 5.1 | 100 | 0.2 |  |
| O=C(NN1CCCCC1)c1cn(-c2ccc(Cl)cc2)c(-c2ccc(Cl)cc2Cl)n1 [1-(4-Chloro-phenyl)-2-(2,4-dichloro-phenyl)-1H-imidazole-4-carboxylic acid piperidin-1-ylamide] | 5.3 | 31.6 | 0.631 |  |
| CCc1c(C(=O)NN2CCCCC2)nc(-c2ccc(Cl)cc2Cl)n1-c1ccc(Cl)cc1 [1-(4-Chloro-phenyl)-2-(2,4-dichloro-phenyl)-5-ethyl-1H-imidazol-4-carboxylic acid piperidin-1-ylamide] | 5.5 | 5.01 |  | Ki [1]: 0.501 µM |
| O=C(NN1CCCCC1)c1nc(-c2ccc(Cl)cc2Cl)n(-c2ccc(Cl)cc2)c1CF [1-(4-Chloro-phenyl)-2-(2,4-dichloro-phenyl)-5-fluoromethyl-1H-imidazole-4-carboxylic acid piperidin-1-ylamide] | 5.5 | 6.31 | 0.794 |  |
| O=C(NN1CCCCC1)c1nc(-c2ccc(Cl)cc2Cl)n(-c2ccc(Cl)cc2)c1CO [1-(4-Chloro-phenyl)-2-(2,4-dichloro-phenyl)-5-hydroxymethyl-1H-imidazole-4-carboxylic acid piperidin-1-ylamide] | 4.7 | 100 | 0.631 |  |
| Cc1c(C(=O)NN2CCCCCC2)nc(-c2ccc(Cl)cc2Cl)n1-c1ccc(Cl)cc1 [1-(4-Chloro-phenyl)-2-(2,4-dichloro-phenyl)-5-methyl-1H-imidazole-4-carboxylic acid azepan-1-ylamide] | 5.7 | 6.31 | 0.0251 |  |
| CSc1c(C(=O)NC2CCCCC2)nc(-c2ccc(Cl)cc2Cl)n1-c1ccc(Cl)cc1 [1-(4-Chloro-phenyl)-2-(2,4-dichloro-phenyl)-5-methylsulfanyl-1H-imidazole-4-carboxylic acid cyclohexylamide] |  | 0.501 |  | pKi (rat SUR2A; [4]): 5.8; Affinity to CB2 [1]: 6.6 |
| CSc1c(C(=O)NN2CCCCC2)nc(-c2ccc(Cl)cc2Cl)n1-c1ccc(Cl)cc1 [1-(4-Chloro-phenyl)-2-(2,4-dichloro-phenyl)-5-methylsulfanyl-1H-imidazole-4-carboxylic acid piperidin-1-ylamide] | 5.6 | 7.94 | 1 |  |
| CCc1c(C(=O)NC2CCCCC2)nc(-c2ncccc2C)n1-c1ccc(Cl)cc1 [1-(4-Chloro-phenyl)-5-ethyl-2-(3-methyl-pyridin-2-yl)-1H-imidazole-4-carboxylic acid cyclohexylamide] | 5.5 |  |  | Ki (hamster SUR1): 100 µM; Ki [1]: 0.794 µM |
| CCCCC/C=C\C/C=C\C/C=C\C/C=C\CCCC(=O)OC(CO)CO [2-AG, Icosa-5,8,11,14-tetraenoic acid 2-hydroxy-1-hydroxymethyl-ethyl ester, reference compound] |  | 2.51 | 3.98 |  |
| O=C(NN1CCCCC1)c1nc(-c2ccc(Cl)cc2Cl)c(-c2ccc(Cl)cc2)s1 [5-(4-Chloro-phenyl)-4-(2,4-dichloro-phenyl)-thiazole-2-carboxylic acid piperidin-1-ylamide] | 5.5 | 2 |  |  |
| CN/C(=N\S(=O)(=O)N1CCCCCC1)N1CC(c2ccccc2)C(c2ccc(Cl)cc2)=N1 (stereo not shown) [Azepane-1-sulfonic acid [3-(4-chloro-phenyl)-4-phenyl-4,5-dihydro-pyrazol-1-yl]-methylamino-methyleneamide] | 4.9 | 25.1 |  |  |
| CNC(=NS(=O)(=O)N1CCOCC1)C1=NN(c2ccc(Cl)cc2Cl)C(c2ccccc2)C1 (stereo not shown) [Morpholine-4-sulfonic acid [1-(2,4-dichloro-phenyl)-5-phenyl-4,5-dihydro-1H-pyrazol-3-yl]-methylamino-methyleneamide] | 5.0 | 5.01 |  |  |
| CCN(CC)S(=O)(=O)N=C(NC)N1CC(O)(c2ccccc2)C(c2ccc(Cl)cc2)=N1 (stereo not shown) [N,N-Diethylamino-1-sulfonic acid [3-(4-chloro-phenyl)-4-hydroxy-4-phenyl-4,5-dihydro-pyrazol-1-yl]-methylamino-methyleneamide] | 5.9 | 100 |  |  |
| CCN(CC)S(=O)(=O)N=C(SC)N1CC(c2ccccc2)C(c2ccc(Cl)cc2)=N1 (stereo not shown) [N,N-Diethylamino-1-sulfonic acid [3-(4-chloro-phenyl)-4-phenyl-4,5-dihydro-pyrazol-1-yl]-methylsulfanyl-methyleneamide] | 4.7 | 100 |  |  |
| CN(C)S(=O)(=O)N=C(NCCF)N1CC(c2ccccc2)C(c2ccc(Cl)cc2)=N1 (stereo not shown) [N,N-Dimethylamino-1-sulfonic acid [3-(4-chloro-phenyl)-4-phenyl-4,5-dihydro-pyrazol-1-yl]-(2-fluoro-ethylamino)-methyleneamide] | 4.0 | 50.1 |  |  |
| CCCCCc1nc(C(=O)NC23CC4CC(CC(C4)C2)C3)sc1-c1ccccc1 [N-Adamantyl-4-pentyl-5-phenyl-thiazole-2-carboxamide] |  | 100 |  | pKi (rat SUR2A; [4]): 4.0 |
| CNC(=NS(=O)(=O)c1ccc(C(F)(F)F)cc1)N1CC(c2ccccc2)C(c2ccc(Cl)cc2)=N1 (stereo not shown) [N-{[3-(4-Chloro-phenyl)-4-phenyl-4,5-dihydro-pyrazol-1-yl]-methylamino-methylene}-4-trifluoromethyl-benzene-sulfonamide] | 4.2 | 0.501 |  |  |
| CCCCC/C=C\C/C=C\C/C=C\C/C=C\CCCCOC(CO)CO [Noladineether, reference compound] |  | 3.98 |  | Ki [1]: 0.251 µM |
| Cc1c(NC(=O)N2CCCCC2)nn(-c2ccc(Cl)cc2Cl)c1-c1ccc(Cl)cc1 [Piperidine-1-carboxylic acid [5-(4-chloro-phenyl)-1-(2,4-dichloro-phenyl)-4-methyl-1H-pyrazol-3-yl]-amide] | 4.7 | 20 |  |  |
| CCc1c(C(=O)NN2CCCCC2)nn(-c2ccc(Cl)cc2Cl)c1-c1ccc(Br)cc1 [SR-147778, 5-(4-Bromo-phenyl)-1-(2,4-dichloro-phenyl)-4-ethyl-1H-pyrazole-3-carboxylic acid piperidin-1-ylamide, reference compound] |  | 3.16 | 1.26 |  |
| O=S(=O)(N=C(NCCF)N1CC(c2ccccc2)C(c2ccc(Cl)cc2)=N1)c1ccc(Cl)cc1 (stereo not shown) [drawing 45, 4-Chloro-N-[[3-(4-chloro-phenyl)-4-phenyl-4,5-dihydro-pyrazol-1-yl]-(2-fluoro-ethylamino)-methylene]-benzenesulfonamide] | 4.6 | 25.1 |  |  |
| O=S(=O)(N=C(NCCF)N1CC(c2ccccc2)C(c2ccc(Cl)cc2)=N1)c1ccc(Cl)cc1 (stereo not shown) [drawing 46] | 5.0 |  |  | Affinity to SUR 1 (hamster SUR1; hamster SUR1 in COS cell membranes): 4.6 |
